Measured values reported in patent publication US20250375450A1, “SMARCA2/4 INHIBITION AS A STRATEGY TO TREAT TUMORS THAT HARBOR ABERRANT BAF ASSEMBLIES” (BOARD OF REGENTS, THE UNIVERSITY OF TEXAS SYSTEM, priority 2022, published 2025).
“Also recorded” adds a separate entry of the source.

Legend:
BAF complex in RH4 cells = assay: BAF complex assembly, size-exclusion chromatography of nuclear lysates and immunoblot; assay type: cell-based; settings: 7.5 μM AT-301
Source text: FIG. 12A-D show representative data illustrating that the assembly of BAF complex is perturbed by AT-301 inhibitor without perturbing oncogenic fusion protein levels. Referring to FIG. 12A and FIG. 12B, immunoblots of RH41 (FIG. 12A) and ES7 (FIG. 12B) cells after 4 and 12 hrs of treatment with AT-301 or DMSO. FOXO1 and FLI1 expression remains unchanged upon AT-301 treatment. Referring to FIG. 12C and FIG. 12D, gel filtration chromatography of ES3 (FIG. 12C) and RH41 (FIG. 12D) cell nuclear lysates after BAF-X-1 treatment are shown. Lysates were passed through a Sephacryl S-400 HR column and every fourth fraction was immuno-blotted for the proteins indicated with fraction numbers above the lanes.
Next, whether AT-301 can perturb the assembly of BAF complex was evaluated using size-exclusion chromatography (SEC) method. Cells were cultured on 15 cm petri-dishes. Nuclei were extracted and lysed. A HiPrep 16/60 Sephacryl S-400 HR column (GE) was equilibrated with a running buffer and 4 mg of the lysate was loaded on to the column. Fractions of 1 mL were eluted at an elution rate of 0.8 mL/min. Eluted proteins were analyzed by concentrating and immunoblotting every fourth fraction.

SMARCAL1 = SMARCAL1 (Homo sapiens, UniProt Q9NZC9); assay: Activity of other SWI/SNF ATPases not part of the BAF complex; assay type: biochemical; settings: SWI/SNF ATPase not part of the BAF complex
Ewing Sarcoma cell lines = assay: Growth of Ewing Sarcoma cell lines, live cell imaging (Incucyte S3) confluency; assay type: cell-based
Method: Briefly, human SMARCA2 was purified, and a high-throughput screen (HTS) of 40,000 compounds was conducted. […] In brief, cells were grown in RPMI media supplemented with 10% Fetal bovine serum (FBS), 1× penicillin, and streptomycin antibiotics. Cells were placed in an incubator with 5% C02 and 50% humidity. When cells reached 90% confluency, cells were harvested, washed twice in 1×PBS, counted using trypan blue exclusion method. Then cells were seeded in 96-well plates (duplicates, n=2) at the density of 20,000 cells per well. Allowed them to attach to the bottom of the well for 1 to 2 hrs and treated with different concentration of AT-301 compound starting at highest concentration of 10 micromolar to serial dilution of the compound to the lowest concentration of 0.039 micromolar. Cells treated with only DMSO were also included as negative control. Cells were monitored for 72 hrs. by live cell imaging method (Incucyte S3) taking images every two hours. The confluency was determined and plotted against time (hours) by using Prism software.

Sequence of SMARCAL1 (Q9NZC9 whole entry): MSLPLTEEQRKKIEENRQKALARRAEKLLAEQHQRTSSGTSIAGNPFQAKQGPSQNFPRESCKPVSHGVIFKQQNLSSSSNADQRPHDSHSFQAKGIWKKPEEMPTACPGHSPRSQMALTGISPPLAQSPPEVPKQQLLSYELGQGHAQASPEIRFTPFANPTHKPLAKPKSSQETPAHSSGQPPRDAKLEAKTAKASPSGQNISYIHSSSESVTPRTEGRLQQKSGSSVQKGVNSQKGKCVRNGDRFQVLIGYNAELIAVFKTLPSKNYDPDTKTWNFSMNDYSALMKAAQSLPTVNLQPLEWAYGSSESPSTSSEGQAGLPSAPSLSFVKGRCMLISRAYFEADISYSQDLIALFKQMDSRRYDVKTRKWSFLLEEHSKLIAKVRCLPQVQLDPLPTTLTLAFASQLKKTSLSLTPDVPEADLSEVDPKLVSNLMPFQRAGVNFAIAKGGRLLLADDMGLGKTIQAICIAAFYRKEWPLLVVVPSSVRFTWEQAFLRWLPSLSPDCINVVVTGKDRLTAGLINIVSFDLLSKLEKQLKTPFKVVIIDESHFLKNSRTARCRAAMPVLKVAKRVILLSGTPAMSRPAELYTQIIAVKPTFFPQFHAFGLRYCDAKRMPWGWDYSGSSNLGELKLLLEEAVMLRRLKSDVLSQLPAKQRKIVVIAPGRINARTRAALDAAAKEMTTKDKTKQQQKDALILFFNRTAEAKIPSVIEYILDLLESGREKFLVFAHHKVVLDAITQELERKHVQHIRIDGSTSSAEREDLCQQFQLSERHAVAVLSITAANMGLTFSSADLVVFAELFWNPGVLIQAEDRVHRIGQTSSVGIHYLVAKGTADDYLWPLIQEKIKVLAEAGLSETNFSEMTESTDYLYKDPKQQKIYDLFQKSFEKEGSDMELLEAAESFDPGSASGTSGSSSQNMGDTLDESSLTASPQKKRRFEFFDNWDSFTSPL

- Inhibition of activity of SMARCAL1 (SMARCAL1): fails to inhibit
- IC50 (Ewing Sarcoma cell lines; 8 different Ewing Sarcoma cell lines, 72 hrs live cell imaging): ~5 µM
SMILES: Clc1ccc(CNc2nc(NC3CCCC3)nc3ccccc23)cc1Cl [AT-301, N^2-cyclopentyl-N^4-(3,4-dichlorobenzyl)quinazoline-2,4-diamine]
- Assembly of BAF complexes (BAF complex in RH4 cells): perturbed assembly
- Growth of Ewing Sarcoma cell lines (Ewing Sarcoma cell lines; live cell imaging, confluency): attenuate the growth; also recorded: strongly attenuated the growth
